Reference: patent publication US9850245B2 (Merck Sharp & Dohme Corp., priority 2014, dated 2017)
Where a name gives a salt, the structure may show the parent alone.

Molecular target: ROMK (Homo sapiens (Human), UniProt P48048)
Experiment: Thallium Flux Assay
Format: cell-based
Protocol: A Thallium Flux Assay was performed on the compounds of the Examples. This assay has been described previously; see, e.g., PCT Published Application WO 2013/062900.

Chain of ROMK (P48048 whole entry): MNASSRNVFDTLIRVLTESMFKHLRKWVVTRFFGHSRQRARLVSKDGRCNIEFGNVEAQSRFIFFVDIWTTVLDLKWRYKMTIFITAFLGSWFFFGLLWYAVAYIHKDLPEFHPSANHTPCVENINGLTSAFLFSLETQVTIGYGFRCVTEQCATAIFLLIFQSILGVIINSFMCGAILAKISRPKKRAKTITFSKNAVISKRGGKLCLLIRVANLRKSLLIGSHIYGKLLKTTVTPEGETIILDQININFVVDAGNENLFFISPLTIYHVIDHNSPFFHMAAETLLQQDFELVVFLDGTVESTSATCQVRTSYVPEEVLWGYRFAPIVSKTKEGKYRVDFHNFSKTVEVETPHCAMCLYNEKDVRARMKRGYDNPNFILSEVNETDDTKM

Structure (SMILES)	IC50 [nM]
CC1=C(N2CCNC3(CCN(CC(O)c4ccc(-n5cnnn5)cc4)CC3)C2=O)COC1=O (single isomer, unassigned) [Example 5A, 9-(2-(4-(1H-tetrazol-1-yl)phenyl)-2-hydroxyethyl)-4-(4-methyl-5-oxo-2,5-dihydrofuran-3-yl)-1,4,9-triazaspiro[5.5]undecan-5-one]	42.5
COc1cc(-n2cnnn2)ccc1C(O)CN1CCC2(CC1)CN(C1=C(C)C(=O)OC1)CCO2 (single isomer, unassigned) [Example 33B, 4-(9-(2-hydroxy-2-(2-methoxy-4-(1H-tetrazol-1-yl)phenyl)ethyl)-1-oxa-4,9-diazaspiro[5.5]undecan-4-yl)-3-methylfuran-2(5H)-one]	91.9
CC1=C(N2CC(F)(F)OC3(CCN(C[C@H](O)c4ccc(-n5cnnn5)nc4)CC3)C2)COC1=O [Example 7A, (R)-4-(9-(2-(6-(1H-tetrazol-1-yl)pyridin-3-yl)-2-hydroxyethyl)-2,2-difluoro-1-oxa-4,9-diazaspiro[5.5]undecan-4-yl)-3-methylfuran-2(5H)-one]	416
O=C1C=C(N2CCOC3(CC4CCC(C3)N4CCc3ccc(-n4cnnn4)nn3)C2=O)CO1 [Example 54, (1R,2′r,5S)-8-(2-(6-(1H-tetrazol-1-yl)pyridazin-3-yl)ethyl)-4′-(5-oxo-2,5-dihydrofuran-3-yl)-8-azaspiro[bicyclo[3.2.1]octane-3,2′-morpholin]-3′-one]	3.76
CC1=C(N2CCOC3(CC4CCC(C3)N4CC(O)c3cnc(-n4cnnn4)cn3)C2=O)COC1=O (single isomer, unassigned) [Example 44]	478
CC1=C(N2CCOC3(CCCN(C[C@@H](O)c4ccc(-n5cnnn5)nc4)CC3)C2=O)COC1=O (stereo partly drawn) [Example 15, 9-((S)-2-(6-(1H-tetrazol-1-yl)pyridin-3-yl)-2-hydroxyethyl)-4-(4-methyl-5-oxo-2,5-dihydrofuran-3-yl)-1-oxa-4,9-diazaspiro[5.6]dodecan-5-one]	280
CC1=C(N2CCOC3(CC4CCC(C3)N4C[C@H](O)c3ccc4c(c3C)COC4=O)C2=O)COC1=O (stereo partly drawn) [Example 42, (1R,2′R,5S)-8-((R)-2-hydroxy-2-(4-methyl-1-oxo-1,3-dihydroisobenzofuran-5-yl)ethyl)-4′-(4-methyl-5-oxo-2,5-dihydrofuran-3-yl)-8-azaspiro[bicyclo[3.2.1]octane-3,2′-morpholin]-3′-one]	87.4
CC1=C(N2CCOC3(CCN(CC(O)c4cnc(-n5cnnn5)nc4)CC3)C2=O)COC1=O (single isomer, unassigned) [Example 46B, 9-(2-(2-(1H-tetrazol-1-yl)pyrimidin-5-yl)-2-hydroxyethyl)-4-(4-methyl-5-oxo-2,5-dihydrofuran-3-yl)-1-oxa-4,9-diazaspiro[5.5]undecan-5-one]	58.1
CC1=C(N2CCOC3(CC4CCC(C3)N4C[C@H](O)c3ccc(-n4cnnn4)nc3)C2=O)COC1=O (stereo partly drawn) [Example 47, (1R,2′R,5S)-8-((R)-2-(6-(1H-tetrazol-1-yl)pyridin-3-yl)-2-hydroxyethyl)-4′-(4-methyl-5-oxo-2,5-dihydrofuran-3-yl)-8-azaspiro[bicyclo[3.2.1]octane-3,2′-morpholin]-3′-one]	9.57
CC1=C(N2CCOC3(CCN(CCc4ccc(-n5cnnn5)nc4)CC3)C2=O)COC1=O [Example 53, 9-(2-(6-(1H-tetrazol-1-yl)pyridin-3-yl)ethyl)-4-(4-methyl-5-oxo-2,5-dihydrofuran-3-yl)-1-oxa-4,9-diazaspiro[5.5]undecan-5-one]	13.1
CC1=C(N2CCNC3(CCN(CC(O)c4ccc(-n5cnnn5)nc4C)CC3)C2=O)COC1=O (single isomer, unassigned) [Example 2B, 9-(2-hydroxy-2-(2-methyl-6-(1H-tetrazol-1-yl)pyridin-3-yl)ethyl)-4-(4-methyl-5-oxo-2,5-dihydrofuran-3-yl)-1,4,9-triazaspiro[5.5]undecan-5-one]	56.2
O=C1OCC(N2CCOC3(CCN(C[C@@H](O)c4ccc(-n5cnnn5)nc4)CC3)C2)=C1C1CC1 [Example 28B, (S)-4-(9-(2-(6-(1H-tetrazol-1-yl)pyridin-3-yl)-2-hydroxyethyl)-1-oxa-4,9-diazaspiro[5.5]undecan-4-yl)-3-cyclopropylfuran-2(5H)-one]	630

The remaining compounds from weak to strong by IC50, led by results:

IC50 [nM]	Structure (SMILES)
697	CC1=C(N2CC3(CCN(C[C@H](O)c4ccc5c(c4C)COC5=O)CC3)OCC2=O)COC1=O [Example 59, (R)-9-(2-hydroxy-2-(4-methyl-1-oxo-1,3-dihydroisobenzofuran-5-yl)ethyl)-4-(4-methyl-5-oxo-2,5-dihydrofuran-3-yl)-1-oxa-4,9-diazaspiro[5.5]undecan-3-one]
468	Cc1nc(-n2cnnn2)ccc1C(O)CN1CCC2(CC1)CN(C1=CC(=O)OC1)C(=O)O2 (single isomer, unassigned) [Example 17, 8-(2-hydroxy-2-(2-methyl-6-(1H-tetrazol-1-yl)pyridin-3-yl)ethyl)-3-(5-oxo-2,5-dihydrofuran-3-yl)-1-oxa-3,8-diazaspiro[4.5]decan-2-one]
462	CC1=C(N2CCOC3(CCN(CC(O)c4cnc(-n5cnnn5)cn4)CC3)C2)COC1=O (single isomer, unassigned) [Example 48A, 4-(9-(2-(5-(1H-tetrazol-1-yl)pyrazin-2-yl)-2-hydroxyethyl)-1-oxa-4,9-diazaspiro[5.5]undecan-4-yl)-3-methylfuran-2(5H)-one]
285	CC1=C(N2CCCOC3(CCN(C[C@H](O)c4ccc5c(c4C)COC5=O)CC3)C2=O)COC1=O [Example 37, (R)-3-(2-hydroxy-2-(4-methyl-1-oxo-1,3-dihydroisobenzofuran-5-yl)ethyl)-11-(4-methyl-5-oxo-2,5-dihydrofuran-3-yl)-7-oxa-3,11-diazaspiro[5.6]dodecan-12-one]
264	Cc1c([C@@H](O)CN2CCC3(CC2)OCC(C)N(C2=CC(=O)OC2)C3=O)ccc2c1COC2=O (single isomer, unassigned) [Example 14]
218	CC1=C(N2CCOC3(CCN(C[C@H](F)c4ccc5c(c4C)COC5=O)CC3)C2=O)COC1=O [Example 57, (R)-9-(2-fluoro-2-(4-methyl-1-oxo-1,3-dihydroisobenzofuran-5-yl)ethyl)-4-(4-methyl-5-oxo-2,5-dihydrofuran-3-yl)-1-oxa-4,9-diazaspiro[5.5]undecan-5-one]
155	CC1=C(N2C(=O)C3(CCN(C[C@@H](O)c4ccc(-n5cnnn5)nc4)CC3)OCC2C)COC1=O (single isomer, unassigned) [Example 10A]
123	CC1=C(N2CCOC3(CCN(CC(O)c4ccc(-n5cnnn5)cc4F)CC3)C2)COC1=O (single isomer, unassigned) [Example 32B, 4-(9-(2-(2-fluoro-4-(1H-tetrazol-1-yl)phenyl)-2-hydroxyethyl)-1-oxa-4,9-diazaspiro[5.5]undecan-4-yl)-3-methylfuran-2(5H)-one]
118	CC1=C(N2CCOC3(CCN(CC(O)c4cnc(-n5cnnn5)cn4)CC3)CC2)COC1=O (single isomer, unassigned) [Example 40, 4-(3-(2-(5-(1H-tetrazol-1-yl)pyrazin-2-yl)-2-hydroxyethyl)-7-oxa-3,10-diazaspiro[5.6]dodecan-10-yl)-3-methylfuran-2(5H)-one]
74.3	Cc1cc(-n2cnnn2)ccc1C(O)CN1CCC2(CC1)CN(C1=CC(=O)OC1)CCO2 (single isomer, unassigned) [Example 30B, 4-(9-(2-hydroxy-2-(2-methyl-4-(1H-tetrazol-1-yl)phenyl)ethyl)-1-oxa-4,9-diazaspiro[5.5]undecan-4-yl)furan-2(5H)-one]
68.7	CC1=C(N2CCNC3(CCN(C[C@H](O)c4ccc5c(c4C)COC5=O)CC3)C2=O)COC1=O [Example 1, 9-[(2R)-2-hydroxy-2-(4-methyl-1-oxo-1,3-dihydro-2-benzofuran-5-yl)ethyl]-4-(4-methyl-5-oxo-2,5-dihydrofuran-3-yl)-1,4,9-triazaspiro[5.5]undecan-5-one dihydrochloride]
63.1	CC1=C(N2CCNC3(CCN(C[C@@H](O)c4ccc(-n5cnnn5)nc4)CC3)C2=O)COC1=O [Example 4B, (S)-9-(2-(6-(1H-tetrazol-1-yl)pyridin-3-yl)-2-hydroxyethyl)-4-(4-methyl-5-oxo-2,5-dihydrofuran-3-yl)-1,4,9-triazaspiro[5.5]undecan-5-one]
39.3	CC1=C(N2CCOC3(CCN(CCc4cnc(-n5cnnn5)cn4)CC3)C2=O)COC1=O [Example 52, 9-(2-(5-(1H-tetrazol-1-yl)pyrazin-2-yl)ethyl)-4-(4-methyl-5-oxo-2,5-dihydrofuran-3-yl)-1-oxa-4,9-diazaspiro[5.5]undecan-5-one]
37.4	CC1=C(N2CCOC3(CCN(CC(O)c4ccc(-n5cnnn5)cc4F)CC3)C2)COC1=O (single isomer, unassigned) [Example 32A, 4-(9-(2-(2-fluoro-4-(1H-tetrazol-1-yl)phenyl)-2-hydroxyethyl)-1-oxa-4,9-diazaspiro[5.5]undecan-4-yl)-3-methylfuran-2(5H)-one]
36.8	CC1=C(N2CCNC3(CCN(CC(O)c4ccc(-n5cnnn5)cc4)CC3)C2=O)COC1=O (single isomer, unassigned) [Example 5B, 9-(2-(4-(1H-tetrazol-1-yl)phenyl)-2-hydroxyethyl)-4-(4-methyl-5-oxo-2,5-dihydrofuran-3-yl)-1,4,9-triazaspiro[5.5]undecan-5-one]
